This note sets out measurements from patent US20150218212A1, “FLUORINATED EPOXYKETONE-BASED TETRAPEPTIDE COMPOUNDS AND USES THEREOF AS PROTEASOME INHIBITORS” (FLUORINOV PHARMA INC., priority 2012, published 2015).

As a reminder, the IC50 is the point on the concentration scale where inhibition reaches its midpoint. Low values mean greater potency, high ones weaker potency.

The target in this test is T1, chymotrypsin-like (CT-L) proteasome activity (Homo sapiens, UniProt P20618+P28074).
T1 sequence (P28074 60-263): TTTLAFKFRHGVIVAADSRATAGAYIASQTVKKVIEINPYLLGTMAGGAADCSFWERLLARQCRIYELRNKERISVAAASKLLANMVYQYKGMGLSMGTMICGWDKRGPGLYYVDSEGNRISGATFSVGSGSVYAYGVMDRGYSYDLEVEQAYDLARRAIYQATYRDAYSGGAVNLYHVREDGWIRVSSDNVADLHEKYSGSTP
T1 sequence (P20618 29-241): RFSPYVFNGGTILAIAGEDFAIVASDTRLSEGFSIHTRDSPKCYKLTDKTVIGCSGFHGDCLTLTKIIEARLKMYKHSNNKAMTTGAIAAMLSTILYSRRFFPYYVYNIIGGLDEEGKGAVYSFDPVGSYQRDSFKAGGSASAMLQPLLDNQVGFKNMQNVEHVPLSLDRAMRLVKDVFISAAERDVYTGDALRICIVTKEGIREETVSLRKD
The experiment in a line: Proteasome enzymatic activity (tumor cell lysates), CT-L, OCI-AML-2. It is filed as biochemical. The settings on record: OCI-AML-2, mean ± standard deviation. How it is done:
Human multiple myeloma cell lines 8226, H929, JJN3, KMH11, KMS11, KMS18, LP1, MM1S, OPM2 and U266 were grown in Iscove modified Dulbecco's medium (IMDM). Human leukemia cell lines K562, OCI-AML2 and U937 were cultured in RPMI-1640 medium. Primary peripheral blood mononuclear cells were isolated from multiple myeloma patients by Ficoll density gradient centrifugation and bone marrow aspirates were obtained from multiple myeloma patients at the Princess Margaret Cancer Centre of the University Health Network (UHN; Toronto, ON, Canada). Primary cells were cultured in IMDM. The collection and use of human tissue for this study was approved by the UHN institutional ethics review board. All cell culture media were obtained from the Ontario Cancer Institute Tissue Culture Media Facility (Toronto, ON, Canada) and were supplemented with 10% fetal calf serum, […] (Hyclone, Logan, Utah). All cells were grown in a humidified incubator at 37° C. with 5% CO2.
Cells were harvested by centrifugation at 1,200 rpm at room temperature. Cell pellets were washed with PBS (phosphate buffered saline) and lysed with assay lysis buffer (50 mM HEPES (N-2-hydroxyethylpiperazine-N′-2-ethanesulfonic acid), pH 7.5; 150 mM NaCl; 1% Triton X-100; 2 mM ATP). Cell lysates were incubated on ice for 30 minutes, mixed by vortex every 5 minutes, and then centrifuged at 12,000 g for 10 minutes. The supernatant was transferred to a 96-well plate. For each assay, 10 μg of total protein were incubated for 1 hour at 37° C. with increasing concentrations (1 nM to 10 μM) of test compound diluted in assay buffer (50 mM tris-HCl (tris(hydroxymethyl)aminomethane-HCl), pH 7.5; 150 mM NaCl). DMSO alone was used as a control in every assay plate. After incubation, a specific fluorogenic proteasome substrate was added to each assay reaction at a final concentration of 40 μM in a total volume of 100 μL. N-Succinyl-Leu-Leu-Val-Tyr-7-amino-4-methylcoumarin (Suc-Leu-Leu-Val-Tyr-AMC) was used for measuring chymotrypsin-like (CT-L) activity, t-butoxycarbonyl-Leu-Arg-Arg-7-amino-4-methylcoumarin (Boc-Leu-Arg-Arg-AMC) for trypsin-like (T-L) activity, and benzyloxycarbonyl-L-leucyl-L-leucyl-L-glutamyl-7-amino-4-methylcoumarin (Z-Leu-Leu-Glu-AMC) for caspase-like (C-L) activity. The excitation wavelength was set at 360 nm and the fluorescence emission wavelength of AMC was detected at 460 nm. The fluorescence of free AMC released during the enzymatic reaction was measured with a SpectraMax M5 fluorescent spectrophotometric plate reader (Molecular Devices, Sunnyvale, Calif.). AMC release rate was measured at 37° C. in a kinetic mode, recording every 5 minutes for 30 minutes. Experiments were performed in triplicate and repeated at least twice.
Table 8 summarizes the data of representative compounds of Formula I for cell viability and CT-L proteasome activity with OCI-AML-2 and KMS-11 cell lines.
`CC(C)C[C@H](NC(=O)[C@H](COC(F)F)NC(=O)CN1CCOCC1)C(=O)N[C@@H](COC(F)F)C(=O)N[C@@H](CC(C)C)C(=O)[C@@]1(C)CO1` [Example 1, (2S)—N-[(1S)-1-(difluoromethoxymethyl)-2-[[(1S)-3-methyl-1-[(2R)-2-methyloxirane-2-carbonyl]butyl]amino]-2-oxo-ethyl]-2-[[(2S)-3-(difluoromethoxy)-2-[(2-morpholinoacetyl)amino]propanoyl]amino]-4-methyl-pentanamide] gave an IC50 of 39 ± 1.24 nM.

`CC(C)C[C@H](NC(=O)[C@H](COC(F)F)NC(=O)CN1CCOCC1)C(=O)N[C@@H](Cc1ccccc1)C(=O)N[C@@H](CC(C)C)C(=O)[C@@]1(C)CO1` [Example 2, (2S)-N-[(1S)-1-benzyl-2-[[(1S)-3-methyl-1-[(2R)-2-methyloxirane-2-carbonyl]butyl]-amino]-2-oxo-ethyl]-2-[[(2S)-3-(difluoromethoxy)-2-[(2-morpholinoacetyl)amino]propanoyl]amino]-4-methyl-pentanamide] showed an IC50 of 41.2 ± 3.19 nM.

`CC(C)C[C@H](NC(=O)[C@H](COC(F)F)NC(=O)CN1CCOCC1)C(=O)N[C@@H](Cc1ccccc1)C(=O)N[C@@H](Cc1ccccc1)C(=O)[C@@]1(C)CO1` [Example 3, (2S)-N-[(1S)-1-benzyl-2-[[(1S)-1-benzyl-2-[(2R)-2-methyloxiran-2-yl]-2-oxo-ethyl]amino]-2-oxo-ethyl]-2-[[(2S)-3-(difluoromethoxy)-2-[(2-morpholinoacetyl)-amino]propanoyl]amino]-4-methyl-pentan-amide] gave an IC50 of 30 ± 2.44 nM. As for `CC(C)C[C@H](NC(=O)[C@H](COC(F)F)NC(=O)CN1CCOCC1)C(=O)N[C@@H](COC(F)F)C(=O)N[C@@H](Cc1ccccc1)C(=O)[C@@]1(C)CO1` [Example 4, (2S)-N-[(1S)-2-[[(1S)-1-benzyl-2-[(2R)-2-methyloxiran-2-yl]-2-oxo-ethyl]amino]-1-(difluoromethoxymethyl)-2-oxo-ethyl]-2-[[(2S)-3-(difluoromethoxy)-2-[(2-mor-pholinoacetyl)amino]propanoyl]amino]-4 methyl-pentanamide], the IC50 amounted to 20.9 ± 0.91 nM. As for `CC(C)C[C@H](NC(=O)[C@H](COC(F)F)NC(=O)[C@H](COC(F)F)NC(=O)[C@H](CCc1ccccc1)NC(=O)CN1CCOCC1)C(=O)[C@@]1(C)CO1` [Example 7, (2S)-N-[(1S)-1-(difluoromethoxymethyl)-2-[[(1S)-1-(difluoromethoxymethyl)-2-[[(1S)-3-methyl-1-[(2R)-2-methyloxirane-2-carbo-nyl]butyl]amino]-2-oxo-ethyl]amino]-2-oxo-ethyl]-2-[(2-morpholinoacetyl)amino]-4-phenyl-butanamide], the IC50 came to 24.7 ± 9.6 nM. The molecule `CC(C)C[C@H](NC(=O)[C@H](Cc1ccccc1)NC(=O)[C@H](COC(F)F)NC(=O)[C@H](COC(F)F)NC(=O)CN1CCOCC1)C(=O)[C@@]1(C)CO1` [Example 11, (2S)-2-[[(2S)-3-(difluoromethoxy)-2-[[(2S)-3-(difluoromethoxy)-2-[(2-morpholinoacetyl)-amino]propanoyl]amino]propanoyl]amino]-N-[(1S)-3-methyl-1-[(2R)-2-methyloxirane-2-carbonyl]butyl]-3-phenyl-propanamide] returned an IC50 of 30.5 ± 3.9 nM. Next, `CC(C)C[C@H](NC(=O)[C@H](COC(F)F)NC(=O)[C@H](COC(F)F)NC(=O)[C@H](COC(F)F)NC(=O)CN1CCOCC1)C(=O)[C@@]1(C)CO1` [Example 17, (2S)-3-(difluoromethoxy)-N-[(1S)-1-(difluoromethoxymethyl)-2-[[(1S)-1-(difluoro-methoxymethyl)-2-[[(1S)-3-methyl-1-[(2R)-2-methyloxirane-2-carbonyl]butyl]amino]-2-oxo-ethyl]amino]-2-oxo-ethyl]-2-[(2-mor-pholinoacetyl)amino]-propanamide]: 58.3 ± 3.11 nM.
